From PubChem BioAssay (NCI)
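96-well plates; 48 h exposure; 5 concentrations. Endpoints by linear interpolation between flanking doses. Not reached: highest tested concentration assigned. GI50 = concentration required for 50% inhibition of growth. TGI denotes the concentration required for complete inhibition of growth.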

Experiments:
Assay in all cases: growth of human tumour cells (NCI), 48 h
PC-3 prostate = tested on: PC-3 prostate
RXF 393 renal = tested on: RXF 393 renal
T-47D breast = tested on: T-47D breast
HS 578T breast = tested on: HS 578T breast
HOP-92 NSCLC = tested on: HOP-92 NSCLC
HCC-2998 colon = tested on: HCC-2998 colon
A549 NSCLC = tested on: A549 NSCLC
K-562 leukemia = tested on: K-562 leukemia
A498 renal = tested on: A498 renal
IGROV1 ovarian = tested on: IGROV1 ovarian
SW-620 colon = tested on: SW-620 colon
OVCAR-8 ovarian = tested on: OVCAR-8 ovarian
NCI-H522 lung = tested on: NCI-H522 lung
MDA-MB-231 breast = tested on: MDA-MB-231 breast
UACC-257 melanoma = tested on: UACC-257 melanoma
CCRF-CEM leukemia = tested on: CCRF-CEM leukemia

| Compound | TGI (PC-3 prostate) [µM] | TGI (RXF 393 renal) [µM] | TGI (T-47D breast) [µM] | TGI (HS 578T breast) [µM] | GI50 (HOP-92 NSCLC) [µM] | TGI (HOP-92 NSCLC) [µM] | TGI (HCC-2998 colon) [µM] | TGI (A549 NSCLC) [µM] | TGI (K-562 leukemia) [µM] | TGI (A498 renal) [µM] | TGI (IGROV1 ovarian) [µM] | TGI (SW-620 colon) [µM] | TGI (OVCAR-8 ovarian) [µM] | TGI (NCI-H522 lung) [µM] | TGI (MDA-MB-231 breast) [µM] | TGI (UACC-257 melanoma) [µM] | TGI (CCRF-CEM leukemia) [µM] |
| --- | --- | --- | --- | --- | --- | --- | --- | --- | --- | --- | --- | --- | --- | --- | --- | --- | --- |
| O=[N+]([O-])O.[Ga] | > 10000 | > 9480 | > 9010 | > 10000 | 673 | 3700 | > 5620 | > 10000 | > 8480 | 2590 | > 7220 | > 10000 | > 7940 | 4490 | > 10000 | > 10000 | 3190 |
| CC(C)n1c2c([n+](C)c1/C=C/c1ccccc1)C(=O)c1ccccc1C2=O | 0.726 | 2.19 | 0.61 | 7.8 | – | 1.48 | 2.06 | 4.68 | 9.61 | 2.76 | 0.0688 | 1.21 | 1.96 | 0.15 | 0.884 | 0.123 | 10.9 |
| O=c1[nH]nc(Cc2ccc(Cl)cc2)n1/N=C\CC/C=N\n1c(Cc2ccc(Cl)cc2)n[nH]c1=O | > 100 | 76.1 | > 100 | 36.5 | – | > 100 | > 100 | > 100 | > 100 | > 100 | 41.3 | > 100 | 37 | > 100 | > 58.4 | > 100 | > 88.9 |
| COc1ccccc1Cn1nc(OC)c2cc([N+](=O)[O-])ccc21 | > 100 | 11.2 | > 100 | > 84.7 | – | 33.8 | > 100 | > 100 | > 100 | 60.3 | > 100 | > 100 | > 100 | > 81.3 | > 67.7 | > 100 | > 100 |
| OC1CN2CCS[C@H]2C(O)C1O (stereo partly drawn) | > 100 | > 100 | > 100 | > 100 | – | > 100 | > 100 | > 100 | > 100 | > 100 | > 100 | > 100 | > 100 | > 100 | > 100 | > 100 | > 100 |
| CN(C)c1ccc(/C=C(\NC(=O)c2ccccc2)C(=O)NC(CCC(=O)O)C(=O)O)cc1 (stereo not drawn) | > 100 | > 100 | > 100 | > 100 | – | > 100 | > 100 | > 100 | > 100 | > 100 | > 100 | > 100 | > 100 | > 100 | > 100 | > 100 | > 100 |
| N#CC1=C(N)OC(c2ccc([N+](=O)[O-])cc2)C1(C#N)C#N (stereo not drawn) | 34.7 | 21 | 43.2 | 64.9 | – | 21.9 | 23.5 | > 93.3 | > 100 | 27.8 | 31.1 | 33.9 | 32.3 | 17.8 | 30.4 | 26.5 | 43.3 |
| CC(CO)C1=CC(C#CCOCc2ccccc2)N(C(=O)Oc2ccccc2)c2ccccc21 (stereo not drawn) | > 100 | 23 | > 100 | 53.5 | – | 61.7 | > 100 | > 100 | > 100 | 24.2 | > 100 | > 100 | > 100 | 37.3 | > 100 | 88.2 | > 100 |
| CN(C)c1nc(-c2ccccc2)c(C(=O)c2c[nH]c3ccccc23)s1 | > 100 | > 91.5 | > 100 | > 28.3 | – | > 33.2 | > 70.6 | > 100 | > 100 | > 100 | > 44.7 | > 100 | > 100 | 10.4 | > 100 | > 100 | > 60.5 |
| CCN(CC)CCCNc1nc2ccccc2c2[nH]c3ccc(OC)cc3c12 | 2.73 | 2.96 | > 10 | 3.81 | – | 9.53 | 2.33 | 3.37 | 3.44 | 5.27 | 3.72 | 2.37 | 2.41 | 2.88 | 3.29 | 3.2 | 3.87 |
| NCCCN1CCN(CC(=O)O)CCN(CCCN)CCN(CC(=O)O)CC1 | > 100 | > 100 | > 100 | > 100 | – | > 100 | > 100 | > 100 | > 100 | > 100 | > 100 | > 100 | > 100 | > 84.2 | > 100 | > 100 | > 100 |
| COc1cc2c(c3c1c(=O)c1ccccc1n3C)C=CC1(CCCCC1)O2 | > 10 | 2.98 | > 10 | 7.49 | – | 9.77 | > 10 | 4.43 | 6.36 | > 9.61 | > 10 | > 10 | > 10 | > 10 | > 10 | > 10 | > 10 |
